Data published in ChEMBL document CHEMBL1201861, “Genomics of Drug Sensitity in Cancer screening data, Wellcome Trust Sanger Institute”.

Legend:
Assay type in all cases: functional, cell-based
[1] = tested on: EHEB; experiment: cells; settings: Homo sapiens;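 note: growth inhibition of human EHEB cells, read out with a cell viability assay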
Description: SANGER: Inhibition of human EHEB cell growth in a cell viability assay.

[2] = tested on: MHH-CALL-2; experiment: cells; settings: Homo sapiens;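 note: growth inhibition of the cell line, read out in a cell viability assay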
Description: SANGER: Inhibition of human MHH-CALL-2 cell growth in a cell viability assay.

[3] = tested on: MRK-nu-1; experiment: cells; settings: Homo sapiens;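 note: cell viability assay measuring growth suppression of human MRK-nu-1 cells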
Description: SANGER: Inhibition of human MRK-nu-1 cell growth in a cell viability assay.

[4] = tested on: NCCIT; experiment: SANGER: Inhibition of human NCCIT cell growth in a cell viability assay.
[5] = tested on: NCI-H1436; experiment: cells; settings: Homo sapiens;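 note: growth suppression of human NCI-H1436 cells, determined with a cell viability readout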
Description: SANGER: Inhibition of human NCI-H1436 cell growth in a cell viability assay.

[6] = tested on: NCI-H1694; experiment: cells; settings: Homo sapiens;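 note: cell viability assay measuring inhibition of growth in human NCI-H1694 cells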
Description: SANGER: Inhibition of human NCI-H1694 cell growth in a cell viability assay.

[7] = tested on: NCI-H187; experiment: cells; settings: Homo sapiens;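 note: growth inhibition of NCI-H187 cells, read out as cell viability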
Description: SANGER: Inhibition of human NCI-H187 cell growth in a cell viability assay.

[8] = tested on: NCI-H524; experiment: cells; settings: Homo sapiens;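 note: growth inhibition of human NCI-H524 cells, read out through a cell viability assay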
Description: SANGER: Inhibition of human NCI-H524 cell growth in a cell viability assay.

[9] = tested on: NCI-H716; experiment: cells; settings: Homo sapiens;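 note: growth inhibition of human NCI-H716 cells, measured by a cell viability assay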
Description: SANGER: Inhibition of human NCI-H716 cell growth in a cell viability assay.

[10] = tested on: REH; experiment: cells; settings: Homo sapiens;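 note: growth inhibition of REH cells determined with a cell viability read-out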
Description: SANGER: Inhibition of human REH cell growth in a cell viability assay.

[11] = tested on: RL; experiment: cells; settings: Homo sapiens
Description: SANGER: Inhibition of human RL cell growth in a cell viability assay.

[12] = tested on: Raji; experiment: cells; settings: Homo sapiens;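 note: cell viability assay measuring inhibition of Raji cell growth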
Description: SANGER: Inhibition of human Raji cell growth in a cell viability assay.

[13] = tested on: SK-MM-2; experiment: cells; settings: Homo sapiens;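 note: growth inhibition of human SK-MM-2 cells, read out with a cell viability assay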
Description: SANGER: Inhibition of human SK-MM-2 cell growth in a cell viability assay.

[14] = tested on: SU-DHL-1; experiment: SANGER: Inhibition of human SU-DHL-1 cell growth in a cell viability assay.
[15] = tested on: SUP-T1; experiment: cells; settings: Homo sapiens;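 note: growth inhibition of human SUP-T1 cells, read out as cell viability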
Description: SANGER: Inhibition of human SUP-T1 cell growth in a cell viability assay.

[16] = tested on: BC-3; experiment: cells; settings: Homo sapiens;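 note: cell viability assay measuring growth inhibition of human BC-3 cells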
Description: SANGER: Inhibition of human BC-3 cell growth in a cell viability assay.

[17] = tested on: BL-41; experiment: cells; settings: Homo sapiens;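 note: growth inhibition of human BL-41 cells, read out with a cell viability assay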
Description: SANGER: Inhibition of human BL-41 cell growth in a cell viability assay.

[18] = tested on: TUR; experiment: cells; settings: Homo sapiens;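 note: growth inhibition of human TUR cells, read out with a cell viability assay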
Description: SANGER: Inhibition of human TUR cell growth in a cell viability assay.

[19] = tested on: YT; experiment: cells; settings: Homo sapiens
Description: SANGER: Inhibition of human YT cell growth in a cell viability assay.

[20] = tested on: CHP-126; experiment: cells; settings: Homo sapiens
Description: SANGER: Inhibition of human CHP-126 cell growth in a cell viability assay.

SMILES | IC50 [1] | IC50 [2] | IC50 [3] | IC50 [4] | IC50 [5] | IC50 [6] | IC50 [7] | IC50 [8] | IC50 [9] | IC50 [10] | IC50 [11] | IC50 [12] | IC50 [13] | IC50 [14] | IC50 [15] | IC50 [16] | IC50 [17] | IC50 [18] | IC50 [19] | IC50 [20]
CCNc1cc(N[C@H]2CC[C@@H](O)CC2)nc(Nc2ccc3c(ccn3Cc3ccccc3)c2)n1 | > 5.12 µM | > 5.12 µM | 3.09 µM | > 5.12 µM | > 5.12 µM | > 5.12 µM | > 5.12 µM | > 5.12 µM | > 5.12 µM | > 5.12 µM | > 5.12 µM | > 5.12 µM | > 5.12 µM | > 5.12 µM | > 5.12 µM | > 5.12 µM | > 5.12 µM | > 5.12 µM | > 5.12 µM | > 5.12 µM
Cc1ccc(NC(=O)c2cccc(C(C)(C)C#N)c2)cc1Nc1ccc2ncn(C)c(=O)c2c1 | > 4 µM | > 4 µM | > 4 µM | > 4 µM | > 4 µM | > 4 µM | > 4 µM | > 4 µM | > 4 µM | > 4 µM | > 4 µM | > 4 µM | > 4 µM | 3.53 µM | 1.74 µM | > 4 µM | > 4 µM | > 4 µM | > 4 µM | > 4 µM
CCn1c(-c2nonc2N)nc2cnc(Oc3cccc(NC(=O)c4ccc(OCCN5CCOCC5)cc4)c3)cc21 [GSK-269962A] |  | > 2.5 µM | 0.576 µM | > 2.5 µM | > 2.5 µM | > 2.5 µM | > 2.5 µM | > 2.5 µM | > 2.5 µM | > 2.5 µM | > 2.5 µM | > 2.5 µM | > 2.5 µM | > 2.5 µM | > 2.5 µM | > 2.5 µM | > 2.5 µM | > 2.5 µM | > 2.5 µM | > 2.5 µM
